Source: patent US20060069132A1, “Azolecarboxamide herbicides” (priority 2004, published 2006)

Assays:
[1] = system: pigweed; assay: Test B pre-/postemergence herbicide test; type: in vivo, Amaranthus retroflexus; conditions: for Pigweed plant response rating: postemergence
Outline: (§1)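 Flooded paddy rice and barnyardgrass were treated at the 2-leaf stage; upland plantings received compound either on sown seed or on 1- to 4-leaf seedlings. All were kept 13–15 days in a greenhouse and scored visually, 0–100, relative to untreated plants.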

[2] = system: cocklebur; assay: Test B pre-/postemergence herbicide test; type: in vivo, Xanthium strumarium
Outline: (§2)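 Seeds were planted and treated preemergence with compounds formulated in a non-phytotoxic solvent mixture containing surfactant, while plants at the 1- to 4-leaf stage (2 to 18 cm) received postemergence sprays. Flooded paddy plants were grown to the 2-leaf stage. After 13 to 15 days in a greenhouse, injury was visually rated 0–100 against untreated controls.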

[3] = system: Surinam grass; assay: Test B pre-/postemergence herbicide test; type: in vivo, Urochloa decumbens; conditions: for Surinam Grass plant response rating: postemergence
Outline: as §1

[4] = system: giant foxtail; assay: Test B pre-/postemergence herbicide test; type: in vivo, Setaria faberi
Outline: as §1

[5] = system: wheat; assay: Test B postemergence herbicide test; type: in vivo, Triticum aestivum; set-up: key to Wheat plant response rating: 0 = no effect, 100 = complete control; conditions: scale 0 (no effect) to 100 (complete control); for Wheat plant response rating: postemergence, visual rating
Outline: (§3)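 Postemergence plants were sprayed with formulated test chemicals at 2 to 18 cm height (1- to 4-leaf stage); paddy species were grown to the 2-leaf stage. After 13 to 15 days in a greenhouse, injury was rated visually against untreated controls on a 0–100 scale (0 = no effect, 100 = complete control).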

[6] = system: corn; assay: Test B pre-/postemergence herbicide test; type: in vivo, Zea mays
Outline: as §1

[7] = system: wild oat; assay: Test B postemergence herbicide test; type: in vivo, Avena fatua; conditions: scale 0 (no effect) to 100 (complete control); for Oat, Wild plant response rating: postemergence, visual rating
Outline: as §3

[8] = system: small flower umbrella sedge; assay: Test B flooded paddy test; type: in vivo, Cyperus difformis; conditions: 1000 g ai/ha, visual rating, scale 0 to 100 (0 no effect, 100 complete control), 13 to 15 days
Outline: as §3

[9] = system: morningglory; assay: Test B pre-/postemergence herbicide test; type: in vivo, Ipomoea coccinea; conditions: for Morningglory plant response rating: postemergence
Outline: as §2

[10] = system: lambsquarters; assay: Test B pre-/postemergence herbicide test; type: in vivo, Chenopodium album; conditions: for Lambsquarters plant response rating: postemergence
Outline: as §1

[11] = system: barnyardgrass; assay: Test B flooded paddy test; type: in vivo, Echinochloa crus-galli; conditions: 1000 g ai/ha, visual rating, scale 0 to 100 (0 no effect, 100 complete control), 13 to 15 days
Outline: as §3

[12] = system: rice; assay: Test B flooded paddy test; type: in vivo, Oryza sativa; conditions: 1000 g ai/ha, visual rating, scale 0 to 100 (0 no effect, 100 complete control), 13 to 15 days
Outline: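 After treating 2-leaf paddy plants or 2–18 cm postemergence plants (1 to 4 leaves) with formulated chemical, researchers kept them in a greenhouse for 13–15 days. Effects were judged visually versus controls: 0 indicates none, 100 total control.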

[13] = system: barnyardgrass; assay: Test B pre-/postemergence herbicide test; type: in vivo, Echinochloa crus-galli
Outline: as §2

[14] = system: velvetleaf; assay: Test B pre-/postemergence herbicide test; type: in vivo, Abutilon theophrasti; conditions: for Velvetleaf plant response rating: postemergence
Outline: as §1

[15] = system: large crabgrass; assay: Test B pre-/postemergence herbicide test; type: in vivo, Digitaria sanguinalis
Outline: as §1

[16] = Postemergence, 500 g ai/ha, visual rating after 13 to 15 days, scale 0 (no effect) to 100 (complete control)
[17] = 125 g ai/ha, visual rating, scale 0 (no effect) to 100 (complete control)
[18] = preemergence, 125 g ai/ha, 0 to 100 scale, 0 is no effect, 100 is complete control
[19] = Preemergence, 500 g ai/ha, scale 0 to 100
[20] = postemergence, 125 g ai/ha, visual rating, scale 0 (no effect) to 100 (complete control)
[21] = Postemergence, 500 g ai/ha, visual rating after 13 to 15 days
[22] = 125 g ai/ha, 0 = no effect, 100 = complete control, preemergence
[23] = 500 g ai/ha, visual rating, 0 = no effect, 100 = complete control, preemergence
[24] = 500 g ai/ha, visual rating, scale 0 (no effect) to 100 (complete control)
[25] = postemergence, 500 g ai/ha, visual rating, scale 0 (no effect) to 100 (complete control)

In the case of `CCCCOC(=O)c1cccc(NC(=O)c2cc(C(C)(C)C)nn2CC)c1` [Compound 86], the “Plant response rating, Pigweed” value [1, 16] is reported as 100, the “Pigweed plant response rating” value [1, 17] is reported as 100 and the “Plant response rating, Pigweed” value [1, 18] is reported as 0. For the same molecule, the “Plant response rating, Cocklebur” value [2, 16] was 100, the “Cocklebur plant response rating” value [2, 19] was 0 and the “Cocklebur plant response rating” value [2, 20] was 20. The “Plant response rating, Cocklebur” value [2, 18] was 0, the “Plant response rating, Surinam Grass” value [3, 16] was 100 and the “Surinam Grass plant response rating” value [3, 17] was 70. For the same molecule, the “Plant response rating, Surinam Grass” value [3, 18] was 0, the “Plant response rating, Foxtail, Giant” value [4, 16] was 60 and the “Foxtail, Giant plant response rating” value [4, 19] was 0. The “Foxtail, Giant plant response rating” value [4, 20] was 40, the “Plant response rating, Foxtail, Giant” value [4, 18] was 0 and the “Plant response rating, Wheat” value [5, 21] was 40. The “Wheat plant response rating” value ([5]; 125 g ai/ha) was 30, the “Plant response rating, Corn” value [6, 16] was 30 and the “Corn plant response rating” value [6, 19] was 0. For the same molecule, the “Corn plant response rating” value [6, 20] was 20, the “Plant response rating, Corn” value [6, 18] was 0 and the “Plant response rating, Oat, Wild” value [7, 21] was 60. The “Oat, Wild plant response rating” value ([7]; 125 g ai/ha) was 30, the “Sedge, Umbrella plant response rating” value [8] was 70 and the “Plant response rating, Morningglory” value [9, 16] was 100. For the same molecule, the “Morningglory plant response rating” value [9, 17] was 60, the “Plant response rating, Morningglory” value [9, 18] was 0 and the “Plant response rating, Lambsquarters” value [10, 16] was 90. For the same molecule, the “Lambsquarters plant response rating” value [10, 17] was 80, the “Plant response rating, Lambsquarters” value [10, 18] was 0 and the “Barnyardgrass plant response rating” value [11] was 30. The “Rice plant response rating” value [12] was 50, the “Plant response rating, Barnyardgrass” value [13, 16] was 80 and the “Barnyardgrass plant response rating” value [13, 19] was 0. For the same molecule, the “Barnyardgrass plant response rating” value [13, 20] was 50, the “Plant response rating, Barnyardgrass” value [13, 18] was 0 and the “Plant response rating, Velvetleaf” value [14, 16] was 70. The “Velvetleaf plant response rating” value [14, 17] was 60, the “Plant response rating, Velvetleaf” value [14, 18] was 0 and the “Plant response rating, Crabgrass, Large” value [15, 16] was 90. The “Crabgrass, Large plant response rating” value [15, 19] was 0, the “Crabgrass, Large plant response rating” value [15, 20] was 60 and the “Plant response rating, Crabgrass, Large” value [15, 18] was 0.

`CCc1nn(C(C)(C)C)cc1C(=O)Nc1cc(C(=O)N(CC)CC)ccc1F` [Compound 223] was tested, and the “Pigweed plant response rating (0 to 100 scale)” value [1, 22] was 90, the “Plant response rating, Pigweed” value [1, 23] was 100 and the “Pigweed plant response rating” value [1, 17] was 60. The “Pigweed plant response rating” value [1, 24] was 70, the “Cocklebur plant response rating (0 to 100 scale)” value [2, 22] was 0 and the “Plant response rating, Cocklebur” value [2, 23] was 20. The “Cocklebur plant response rating” value [2, 20] was 10, the “Cocklebur plant response rating” value [2, 25] was 30 and the “Surinam Grass plant response rating (0 to 100 scale)” value [3, 22] was 20. For the same molecule, the “Plant response rating, Surinam Grass” value [3, 23] was 90, the “Surinam Grass plant response rating” value [3, 17] was 10 and the “Surinam Grass plant response rating” value [3, 24] was 10. For the same molecule, the “Foxtail, Giant plant response rating (0 to 100 scale)” value [4, 22] was 10, the “Plant response rating, Foxtail, Giant” value [4, 23] was 80 and the “Foxtail, Giant plant response rating” value [4, 20] was 10. The “Foxtail, Giant plant response rating” value [4, 25] was 20, the “Wheat plant response rating” value ([5]; 125 g ai/ha) was 0 and the “Wheat plant response rating” value ([5]; 500 g ai/ha) was 0. For the same molecule, the “Corn plant response rating (0 to 100 scale)” value [6, 22] was 10, the “Plant response rating, Corn” value [6, 23] was 80 and the “Corn plant response rating” value [6, 20] was 10. The “Corn plant response rating” value [6, 25] was 20, the “Oat, Wild plant response rating” value ([7]; 125 g ai/ha) was 0 and the “Oat, Wild plant response rating” value ([7]; 500 g ai/ha) was 30. The “Sedge, Umbrella plant response rating” value [8] was 80, the “Morningglory plant response rating (0 to 100 scale)” value [9, 22] was 10 and the “Plant response rating, Morningglory” value [9, 23] was 30. For the same molecule, the “Morningglory plant response rating” value [9, 17] was 40, the “Morningglory plant response rating” value [9, 24] was 80 and the “Lambsquarters plant response rating (0 to 100 scale)” value [10, 22] was 80. For the same molecule, the “Plant response rating, Lambsquarters” value [10, 23] was 100, the “Lambsquarters plant response rating” value [10, 17] was 60 and the “Lambsquarters plant response rating” value [10, 24] was 80. The “Barnyardgrass plant response rating” value [11] was 40, the “Rice plant response rating” value [12] was 70 and the “Barnyardgrass plant response rating (0 to 100 scale)” value [13, 22] was 20. For the same molecule, the “Plant response rating, Barnyardgrass” value [13, 23] was 80, the “Barnyardgrass plant response rating” value [13, 20] was 10 and the “Barnyardgrass plant response rating” value [13, 25] was 20. For the same molecule, the “Velvetleaf plant response rating (0 to 100 scale)” value [14, 22] was 30, the “Plant response rating, Velvetleaf” value [14, 23] was 100 and the “Velvetleaf plant response rating” value [14, 17] was 20. The “Velvetleaf plant response rating” value [14, 24] was 20, the “Crabgrass, Large plant response rating (0 to 100 scale)” value [15, 22] was 50 and the “Plant response rating, Crabgrass, Large” value [15, 23] was 100. The “Crabgrass, Large plant response rating” value [15, 20] was 10 and the “Crabgrass, Large plant response rating” value [15, 25] was 20.
